Assay results: US8703825B2, “Compounds, use thereof as medicaments, and method of preparation thereof” (Universite de Lorraine, priority 2008, dated 2014)
Converted amounts (≈) assume the structure as drawn. Where two headings read alike, the source gives them in different places.

Tests used:
Type in all cases: cell-based
[1] = system: Pseudomonas aeruginosa ATCC 27853; assay: MIC by microdilution in liquid medium (CLSI / CA-SFM); details: ATCC27853, P. aeruginosa ATCC 27853, reference strain, read-out: MIC
Text: (§1) According to the joint recommendations: • of the “Comite de l′Antibiogramme de la Société Française de Microbiologie” (Antibiogram Committee of the French Society of Microbiology) (CA-SFM) [CA-SFM. Communique 2007 (Edition of January 2007). http://www.sfm.asso.fr] and, • of the “Clinical and Laboratory Standards Institute” (CLSI, formerly “National Committee for Clinical Laboratory Standards” or NCCLS) [NCCLS. 2003. Methods for dilution antimicrobial susceptibility tests for bacteria that grow aerobically; approved standard M7-A6, 6th ed. National Committee for Clinical Laboratory Standards, Wayne, Pa., USA.], five reference bacterial strains were used for the study: Escherichia coli ATCC 25922, Pseudomonas aeruginosa ATCC 27853, Staphylococcus aureus ATCC 25923 & ATCC 29213 and Enterococcus faecalis ATCC 29212.
(§2) The bacteria are cultivated either on Mueller-Hinton agar (Difco, 225250), or in Mueller-Hinton broth (Difco, 275730), at 35° C. [Grare M, Mourer M, Fontanay S, Regnouf-de-Vains J B, Finance C, Duval R E. In vitro activity of para-guanidinoethylcalix[4]arene against susceptible and antibiotic-resistant Gram-negative and Gram-positive bacteria. J. Antimicrob Chemother. 2007; 60: 575-81].
(§3) The various molecules tested were prepared in the form of aqueous solution at 10^−2 mol/L. The solutions used for the biological tests are freshly prepared, and stored for a week at most, at 4° C. The solutions are filtered through a filter with pores of 0.22 μm (Millex®GP; 0.22 μm; Millipore; France) before each test.
(§4) Procedure for determining the Minimum Inhibitory Concentration (MIC)
(§5) The minimum inhibitory concentrations (MIC) were determined by the standardized method of microdilution in liquid medium (96-well microplate, U-shaped bottom, Greiner), in Mueller-Hinton broth, with a final inoculum of 10^5-10^6 CFU/mL, depending on the bacterial species, in accordance with the recommendations of the CLSI.
(§6) For the determination of MIC, bacterial suspensions are prepared from an isolated colony, taken from a Mueller-Hinton agar, taken up in 5 mL of Mueller-Hinton broth. After 24 h of growth, the bacterial suspensions are diluted in sterile distilled water in order to obtain an inoculum of 10^5-10^6 CFU/mL. The purity of the bacterial suspensions is tested by isolation on agar and Gram staining.
(§7) The results are the mean value of 4 independent experiments.

[2] = system: Enterococcus faecalis ATCC 29212; assay: as above; details: ATCC29212, E. faecalis ATCC 29212, reference strain, read-out: MIC
Text: as §1, §2, §3, §4, §5, §6, §7

[3] = system: Staphylococcus aureus ATCC 29213; assay: as above; details: Staphylococcus aureus, ATCC29213, S. aureus ATCC 29213, reference strain; read-out: MIC
Text: as §1, §2, §3, §4, §5, §6, §7

[4] = system: Staphylococcus aureus ATCC 25923; assay: as above
Text: as §1, §2, §3, §4, §5, §6, §7

[5] = system: Escherichia coli ATCC 25922; assay: as above
Text: as §1, §2, §3, §4, §5, §6, §7

[6] = system: Gram-positive and Gram-negative bacteria (reference strains and clinical isolates); assay: Antibacterial activity overall (MIC determination); details: summary of MIC results
Text: as §1
The study also included 5 clinical isolates, obtained from rectal samples and/or from haemoculture: • […] E. coli (EcR1), • methicillin-resistant S. aureus (mecA gene) (SaR1), • vancomycin-resistant E. faecium (vanB gene) (EfR1), • E. faecalis resistant to teicoplanin and to vancomycin (vanA gene) (EfR2), and • P. aeruginosa overexpressing an efflux pump (PaRl).
as §4, §5, §6, §7

[7] = S. aureus ATCC 25923, reference strain
[8] = Staphylococcus aureus, ATCC25923, S. aureus ATCC 25923, reference strain, read-out: MIC
[9] = Escherichia coli, ATCC25922, E. coli ATCC 25922, reference strain, read-out: MIC

| Compound | MIC [1] [µg/mL] | MIC [2] [µg/mL] | MIC [3] [µg/mL] | MIC [4, 7] | MIC [4, 8] [µg/mL] | MIC [5, 9] [µg/mL] | antibacterial activity (in words) [6] | MIC ([5]; E. coli ATCC 25922, reference strain) |
| --- | --- | --- | --- | --- | --- | --- | --- | --- |
| N=C(N)CCc1ccc(OCCCCCCOc2ccc(CCC(=N)N)cc2)cc1 [compound 106, 1,6-bis(4-(2-(amidino)ethyl)phenoxy)hexane] | 32 (≈ 77.9 µM) | 32 (≈ 77.9 µM) | 2 (≈ 4.87 µM) | 2 (1) mg/L | 4 (≈ 9.74 µM) | 32 (≈ 77.9 µM) | – | – |
| N=C(N)CCc1ccc(OCCCCOc2ccc(CCC(=N)N)cc2)cc1 [compound 104, 1,4-bis(4-(2-(amidino)ethyl)phenoxy)butane] | 64 (≈ 167 µM) | 256 (≈ 669 µM) | 2 (≈ 5.23 µM) | – | 2 (≈ 5.23 µM) | 64 (≈ 167 µM) | – | – |
| N=C(N)NCCc1ccc(OCCCCCCCCCOc2ccc(CCNC(=N)N)cc2)cc1 [compound 9, 1,9-bis(4-(2-guanidinoethyl)phenoxy)nonane] | 4 (≈ 8.29 µM) | 1 to 2 (≈ 2.07 to 4.14 µM) | 0.25 (≈ 0.518 µM) | – | 0.25 (≈ 0.518 µM) | 1 (≈ 2.07 µM) | very good activities on the 5 reference strains tested | – |
| N=C(N)CCc1ccc(OCCCCCCCCCCOc2ccc(CCC(=N)N)cc2)cc1 [compound 110, 1,10-bis(4-(2-(amidino)ethyl)phenoxy)decane] | 16 (≈ 34.3 µM) | 2 (≈ 4.29 µM) | 1 (≈ 2.14 µM) | – | 1 (≈ 2.14 µM) | 4 (≈ 8.57 µM) | – | 8 (1) mg/L |
| N=C(N)NCCc1ccc(OCOc2ccc(CCNC(=N)N)cc2)cc1 [compound 1, 1,1-bis(4-(2-guanidinoethyl)phenoxy)methane] | 64 (≈ 173 µM) | 256 (≈ 691 µM) | 8 (≈ 21.6 µM) | – | 16 (≈ 43.2 µM) | 64 (≈ 173 µM) | – | – |
| N=C(N)CCc1ccc(OCCCCCCCCOc2ccc(CCC(=N)N)cc2)cc1 [compound 108, 1,8-bis(4-(2-(amidino)ethyl)phenoxy)octane] | 16 (≈ 36.5 µM) | 8 (≈ 18.2 µM) | – | 4 (1) mg/L | 2 (≈ 4.56 µM) | 32 (≈ 73 µM) | – | – |
| N=C(N)CCc1ccc(OCCCCCCCOc2ccc(CCC(=N)N)cc2)cc1 [compound 107, 1,7-bis(4-(2-(amidino)ethyl)phenoxy)heptane] | 64 (≈ 151 µM) | 32 (≈ 75.4 µM) | – | – | – | 64 (≈ 151 µM) | – | – |
| N=C(N)NCCc1ccc(OCCCCCCCCCCOc2ccc(CCNC(=N)N)cc2)cc1 [compound 10, 1,10-bis(4-(2-guanidinoethyl)phenoxy)decane] | 8 (≈ 16.1 µM) | < 1 | < 1 | – | < 1 | 1 to 2 (≈ 2.01 to 4.03 µM) | – | – |
| N=C(N)NCCc1ccc(OCCCCCCCOc2ccc(CCNC(=N)N)cc2)cc1 [compound 7, 1,7-bis(4-(2-guanidinoethyl)phenoxy)heptane] | 16 (≈ 35.2 µM) | 8 (≈ 17.6 µM) | 1 (≈ 2.2 µM) | – | 1 (≈ 2.2 µM) | 4 (≈ 8.8 µM) | – | – |
| N=C(N)NCCc1ccc(OCCCCOc2ccc(CCNC(=N)N)cc2)cc1 [compound 4, 1,4-bis(4-(2-guanidinoethyl)phenoxy)butane] | 64 (≈ 155 µM) | 64 (≈ 155 µM) | 1 (≈ 2.42 µM) | – | 2 (≈ 4.85 µM) | 32 (≈ 77.6 µM) | – | – |
| N=C(N)CCc1ccc(OCCCOc2ccc(CCC(=N)N)cc2)cc1 [compound 103, 1,3-bis(4-(2-(amidino)ethyl)phenoxy)propane] | 128 (≈ 347 µM) | 256 (≈ 695 µM) | 32 (≈ 86.8 µM) | – | 32 (≈ 86.8 µM) | 128 (≈ 347 µM) | – | – |
| N=C(N)NCCc1ccc(OCCCOc2ccc(CCNC(=N)N)cc2)cc1 [compound 3, 1,3-bis(4-(2-guanidinoethyl)phenoxy)propane] | 64 (≈ 161 µM) | 128 (≈ 321 µM) | 2 (≈ 5.02 µM) | – | 4 (≈ 10 µM) | 32 (≈ 80.3 µM) | – | – |
